Literature values in US20240269083A1, “PROLONGED-RELEASE PHARMACEUTICAL COMPOSITION FOR ORAL ADMINISTRATION OF SULTIAME” (ADVICENNE, priority 2021, published 2024).

Tested on: erythrocytes
Settings: single doses of Ospolot, fasting, healthy subjects

affinity for erythrocytes: very strong affinity for erythrocytes
Compound: NS(=O)(=O)c1ccc(N2CCCCS2(=O)=O)cc1 [sultiame, Sultiame]
